# Source: patent US11981740B2, “BAFF-R antibodies and uses thereof” (CITY OF HOPE, priority 2016, dated 2024)
# Experiments:
# SP49-IR cells = test: Ibrutinib sensitivity of ibrutinib-resistant SP49-IR cells; type: cell-based
# Description: (§1) Animals, cell lines, and primary human tumor samples. BALB/c mice for antibody development and NOD scid gamma (NSG) breeding pairs were purchased from The Jackson Laboratory (Bar Harbor, ME). The NSG breeding colony was maintained by the Animal Resource Center at City of Hope. Mice were housed in a pathogen-free animal facility according to institutional guidelines. All animal studies were approved by the Institutional Animal Care and Use Committee (IACUC: 15020). JeKo-1, SU-DHL-6, Raji, U266 and RL were purchased from ATCC (Manassas, VA). Z-138 line was provided by Dr. Michael Wang (MD Anderson Cancer Center). Ibrutinib-resistant SP49-IR line was developed and provided by Dr. Jianguo Tao (University of South Florida). Ibrutinib-resistant SP49 cell lines (SP49-IR) were established by treating cells with escalating doses of ibrutinib. IC50 was 5 nM for parental SP49 compared to >100 nM for SP49-IR. At 100 nM ibrutinib ˜5% of SP49 cells were viable compared with >90% of SP49-IR cells. Human NK-92 176V cells were obtained from Conkwest Inc. (San Diego, CA). For human blood and tumor samples, non-cultured, primary human lymphomas were obtained as cryopreserved, viable single cell suspensions in 10% DMSO from the Lymphoma Satellite Tissue Bank at MD Anderson Cancer Center under an Institutional Review Board approved protocol (IRB: 2005-0656). […]
# SP49 cells = test: Ibrutinib sensitivity of parental SP49 cells; type: cell-based
# Description: as §1
# [1] = tested on: JeKo-1-CD20-KO tumor cells; test: In vivo JeKo-1-CD20-KO xenograft; design: species or system NSG mice; details: Day 20
# Description: FIGS. 6A and 6B are images and FIG. 6C are graphs showing chimeric antibodies targeting human BAFF-R elicited in vivo therapeutic effects against drug resistant B-cell tumors. Bioluminescence images of mice challenged with luciferase-expressing tumors JeKo-1-CD20-KO cells (FIG. 6A) or ibrutinib-resistant Z-138 cells (FIG. 6B) followed by antibody treatments as in FIG. 4. Control group mice received PBS, NK cells alone, or rituximab on the same schedule. […] Tumor free rate and survival differences between experimental and all control groups were analyzed by log-rank test (**P<0.001). Data are representative of three independent experiments.
# (§2) In vivo studies. For tumor models, stable, luciferase-expressing tumors lines were established for bioluminescent imaging in mouse models. Briefly, a luciferase gene was introduced into tumor lines by a lentivirus gene delivery system (pLenti7.3/V5-DEST Gateway Vector Kit, Life Technologies, Carlsbad, CA). The minimum lethal dose per mouse was determined for each tumor cell line by dose titration. Tumor cells were injected intravenously (IV) and mice were monitored by in vivo bioluminescence imaging for minimum tumor dose to ensure engraftment. Minimum lethal tumor doses were: 1×10^6 JeKo-1, 5×10^5 RS4; 11, 5×10^5 JeKo-1-CD20-KO, or 2.5×10^4 Z-138 cells. […]
# [2] = tested on: JeKo-1, Z138, and RS4 lines; test: ADCC chromium release of humanized C90-4 and C90-5, dose response; type: cell-based; details: RS4 acute lymphoblastic lymphoma
# Experimental: FIGS. 21A and 21B are graphs showing humanized antibodies C90-4 and C90-5 analyzed for their specific cytotoxicity of various lymphoma lines. For FIG. 21A, JeKo-1, Z138, and RS4 were subjected to a chromium release assay with humanized antibodies C90-4 and C90-5. Antibodies were administered to the cell lines at concentrations between 0 to 5 μg/mL and incubated for 6 hours with NK cells at an E:T ratio of 20:1. The cell supernatants were analyzed for their chromium content. For FIG. 21B, LY-10, MEC-2, RL, and Raji lymphoma lines were subjected to a chromium release assay with humanized antibodies C90-4 and C90-5. Antibodies were administered to the cell lines at 5 μg/mL and incubated for 6 hours with NK cells at an E:T ratio of 20:1. The cell supernatants were analyzed for their chromium content.
# The two variants were further assessed in their ability to initiate ADCC. The antibodies were administered in varying concentration to JeKo-1, Z138, and RS4 lines after a period of chromium uptake. The cells and antibodies were incubated with effector NK cells. The supernatant was analyzed 6 hours post treatment (FIG. 21A).
# [3] = tested on: RS4; 11 (acute lymphoblastic leukemia, ALL); test: In vivo RS4;11 ALL xenograft, bioluminescence imaging; details: RS4;11 challenged NSG mice
# Description: FIG. 4A is a schematic showing treatment schedule following Day 0 tumor challenge with minimum lethal dose of tumors. Treatments were given by IV tail vein injections. FIGS. 4B and 4C are images showing chimeric antibodies targeting human BAFF-R elicited in vivo therapeutic effects against B-cell tumors. Bioluminescence images of mice challenged with luciferase-expressing tumors: JeKo-1 (MCL) (FIG. 4B) or RS4; 11 (ALL) (FIG. 4C). Experimental groups received treatment of chimeric BAFF-R mAbs (C55 or C90, as indicated). Control group mice received PBS, NK cells alone, or rituximab on the same schedule. Data are representative of three independent experiments.
# as §2
# JeKo-1-CD20-KO clone 25 = test: ADCC on rituximab-resistant JeKo-1-CD20-KO; type: cell-based; details: E:T=20:1
# Experimental: FIGS. 5A, 5B and 5C are images or graphs showing chimeric BAFF-R antibodies induce ADCC on drug resistant lymphoma models in vitro. FIG. 5A is a scatterplot of FACS analysis showing CD20 binding on JeKo-1 cells following CRISPR/HDR knock-out of CD20 gene. CD20 expression on selected CD20−/−clone #25 compared to WT JeKo-1. ADCC effects measured by chromium-51 release after incubation with C55, C90, or rituximab and effectors NK cells (E:T=20:1). Percentage of cell specific lysis of target cells: rituximab-resistant JeKo-1-CD20-KO (FIG. 5B) and ibrutinib-resistant Z-138 and SP49-IR (FIG. 5C). All data are representative of two or more identical experiments. Data are shown as the mean±s.d. of triplicate samples. *P<0.05 compared with NK cells by two-tailed Student's t-test.
# Cytotoxicity assays. Target cells (L cells, human tumor lines, primary patient samples) were labeled with chromium-51 (51Cr, Perkin Elmer, Waltham, MA) for a 51Cr release assay. Briefly, antibodies and effectors (NK cells or complement serum standard [Sigma Aldrich, St. Louis, MO]), were added to labeled target cells and incubated up to 18 hours. NK cells were enriched from PBMC (NK cell enrichment kit, Stemcell Technologies, Vancouver, Canada). 51Cr released into supernatant was detected with a Wizard Automatic Gamma Counter (Perkin Elmer).
# Generation of JeKo-1-CD20-KO. […]
Molecule,IC50 (SP49-IR cells) [nM],"viability at 0.1 µM (SP49-IR cells; At 100 nM ibrutinib, read-out: viable cells) [%]","viability at 0.1 µM (SP49 cells; At 100 nM ibrutinib, SP49, read-out: viable cells) [%]",IC50 (SP49 cells; parental SP49) [nM],tumor burden by bioluminescent imaging [1],ADCC activity [2],tumor growth [3],sensitivity to antibody-mediated cytotoxicity (JeKo-1-CD20-KO clone 25)
C=CC(=O)N1CCC[C@@H](n2nc(-c3ccc(Oc4ccccc4)cc3)c3c(N)ncnc32)C1 [ibrutinib],> 100,> 90,~5,5,–,–,–,–
rituximab [reference compound],–,–,–,–,substantial tumor burden,not active,no inhibition,insensitive
